From ChEMBL document CHEMBL4482306, “Methods for inhibiting fascin” (2014)
Active and inactive are the calls of the source. The rule behind the calls is not given here.

Experiments:
4T1 [1] = assay: Antimigratory activity against mouse 4T1 cells assessed as inhibition of cell migration incubated for 6 hrs by crystal violet staining based Boyden-Chamber cell migration assay; type: functional; settings: 4T1, 6 h
4T1 [2] = assay: Antitumor activity against mouse 4T1 cells implanted in Balb/c mouse mouse assessed as inhibition of breast tumor metastasis at 8 mg/kg dosed daily for 2 weeks starting 7 days post tumor cell implantation and measured on day 28 by 6-thioguanine clonogenic assay; type: functional, organism-based
Fascin (Homo sapiens) = Fascin (Homo sapiens) (UniProt Q16658); assay: Inhibition of GST-tagged recombinant human fascin 1 expressed in Escherichia coli BL21/DE3 assessed as average fiber thickness at 30 uM pre-incubated for 30 mins before polymerized actin addition and followed by Alexa fluro 488 phalloidin addition and measured after 1 hr under dark condition (reference value: 0.39 a.u)
4T1 [3] = assay: Antitumor activity against mouse 4T1 cells implanted in Balb/c mouse mouse assessed as inhibition of breast tumor metastasis at 30 mg/kg dosed daily for 2 weeks starting 7 days post tumor cell implantation and measured on day 28 by 6-thioguanine clonogenic assay; type: functional, organism-based

Row | IC50 (4T1 [1]) | Structure (SMILES) | also measured
1 | > 30 µM | O=C1C(Sc2nc[nH]n2)=C/C(=N/S(=O)(=O)c2ccccc2)c2ccccc21 | 
2 | > 20 µM | CCOc1ccc(S(=O)(=O)Nc2cc(Sc3nc[nH]n3)c(O)c3ccccc23)cc1 | 
3 | > 50 µM | c1ccc(Nc2nc(-c3ccccc3)[n+](-c3ccccc3)s2)cc1 | 

Continued, molecule first:

Row | Structure (SMILES) | IC50 (4T1 [1]) | also measured
4 | Cc1ccc(S(=O)(=O)Nc2cc(Sc3nc[nH]n3)c(O)c3ccccc23)c(C)c1 | > 30 µM | 
5 | O=[N+]([O-])c1ccc(Cl)c(S(=O)(=O)Nc2nc3ccc(Cl)cc3s2)c1 |  | inhibition (4T1 [2]): Active; Activity (Fascin (Homo sapiens)): 0.35 a.u.
6 | COc1ccc(S(=O)(=O)Nc2cc(Sc3nc[nH]n3)c(O)c3ccccc23)cc1 |  | inhibition (4T1 [3]): Active
